According to US20250099440A1, “A PHARMACEUTICAL COMBINATION AND USE THEREOF” (Ascentage Pharma (Suzhou) Co., Ltd., priority 2021, published 2025):

Columns and labels:
[1] = test system: RS4;11 cells carrying different Bcl-2 mutation; test: Cell viability CTG assay in RS4;11 cells, wild type and Bcl-2 mutants; type: cell-based, human
Method: (§1) Cell viability was determined using CellTiter-Glo® luminescent cell viability assay (Promega) or WST assay (Cell counting Kit-8, Shanghai life iLab, China) by following manufacturer's instruction. Cell viability was calculated as cell viability=(mean RLU sample−mean RLU blank)/(RLU cell control−RLU blank)×100. IC50 value was calculated using GraphPad Prism. Combination index (CI) value was calculated by CalcuSyn software (BIOSOFT, UK). CI<0.9 indicate a synergistic combination effect. CI<0.1 scored as 5+ indicates very strong synergistic combination effect, CI between 0.1 and 0.3 scored as 4+ indicates strong synergistic combination effect, CI between 0.3 and 0.7 scored as 3+ indicates medium synergistic combination effect. Method used was the cell viability CTG assay. RS4;11 cells were established from the bone marrow of a patient with acute lymphoblastic leukemia (ALL).

MM1.S [2] = test: Cell death in Venetoclax-resistant MM cell line MM1.S; type: cell-based; conditions: compared with Venetoclax and Navitoclax
primary MM cells = test: Primary MM cells from 4 MM patients in vitro; type: cell-based, human; conditions: compared with venetoclax
Description: The activity of compound E was confirmed in primary MM cells in vitro.

KMS34 [3] = test: Cell death in Venetoclax-resistant MM cell line KMS34; type: cell-based; conditions: compared with Venetoclax and Navitoclax
RPMI 8226 cells = test: Cell viability CTG assay in BCL-2i insensitive RPMI 8226 MM cells; type: cell-based
Method: as §1, with “effect.” for “effect. Method used was the cell viability CTG assay. RS4;11 cells were established from the bone marrow of a patient with acute lymphoblastic leukemia (ALL).”
Method used was the cell viability CTG assay.

[4] = test system: KMS27 drug-resistant (DTEP) clones; test: Venetoclax-resistant DTEP clones of KMS27 MM cell line: proliferation and apoptosis; type: cell-based
Description: Compared with the parent cells, IC50 is increased by at least 3 to 10 times.

NCI-H929 = test: Cell viability CTG assay in BCL-2i resistant MM model NCI-H929; type: cell-based; conditions: insensitive or resistant to BCL-2 inhibitor
Method: as §1, with “effect.” for “effect. Method used was the cell viability CTG assay. RS4;11 cells were established from the bone marrow of a patient with acute lymphoblastic leukemia (ALL).”
Method used was the cell viability CTG assay. BCL-2i resistant MM mode NCI-H929 was established.

platelet = conditions: compared with Compound E; cited from earlier work
MM1.S [5] = test: CDX model of MM1.S; type: in vivo
KMS34 [6] = test: CDX model of KMS34; type: in vivo

Question: Which cell viability ([1]; RS4;11-WT and RS4;11 carrying G101V, D103E, V156D, G101V-D103E, CTG) does the source give for CCN1[C@@H](C(=O)NC23CCC(C(=O)O)(CC2)CC3)[C@H](c2cccc(Cl)c2F)[C@]2(C(=O)Nc3cc(Cl)ccc32)C12CCCCC2 [APG-115] here?
Answer: effectively decrease cell viability

Question: What about the “IC50 (CTG 72 h) compared with ABT-199 (venetoclax)” value ([1]; all RS4;11 cell lines (WT and Bcl-2 mutants), 72 h) of the same compound?
Answer: lower than those of ABT-199 (venetoclax) in all cell lines

Question: With Cc1c(S(C)(=O)=O)c(-c2cc(F)cc(N3CCN(c4ccc(NS(=O)(=O)c5ccc(N[C@H](CCN6CCC(C(=O)O)CC6)CSc6ccccc6)c(S(=O)(=O)C(F)(F)F)c5)cc4)CC3)c2)c(-c2ccc(Cl)cc2)n1C(C)C [APG-1252M1] as the compound, how does the cell death induction (MM1.S [2]) read?
Answer: the most effective in inducing cell death

Question: And the “activity in primary MM cells” value (primary MM cells)?
Answer: higher than venetoclax

Question: What about the cell death induction (KMS34 [3]) of the same compound?
Answer: the most effective in inducing cell death

Question: And the “inhibition of cell proliferation” value (RPMI 8226 cells; RPMI 8226 model, insensitive to BCL-2 inhibitor)?
Answer: single agent activity in inhibiting cell proliferation

Question: And the apoptosis [4]?
Answer: induced apoptosis

Question: What about the “proliferation of drug-resistant clones” value ([4]; compared with Venetoclax) of the same compound?
Answer: successfully inhibited the proliferation of drug-resistant clones

Question: With CN[C@@H](C)C(=O)N[C@H]1CN(S(=O)(=O)c2cccc(S(=O)(=O)N3CC[C@H]4CC[C@@H](C(=O)NC(c5ccccc5)c5ccccc5)N4C(=O)[C@@H](NC(=O)[C@H](C)NC)C3)c2)CC[C@H]2CC[C@@H](C(=O)NC(c3ccccc3)c3ccccc3)N2C1=O [APG-1387] as the compound, how does the “inhibition of cell proliferation” value (NCI-H929) read?
Answer: single agent activity to inhibit cell proliferation

Question: For O=C(NS(=O)(=O)c1ccc(NC[C@H]2COCCO2)c([N+](=O)[O-])c1)c1ccc(N2CCN(CC3=C(c4ccc(Cl)cc4)CC4(CCC4)CC3)CC2)cc1Oc1cnc2[nH]ccc2c1 [APG-2575, (S)—N-((4-(((1,4-dioxan-2-yl)methyl)amino)-3-nitrophenyl)sulfonyl)-2-((1H-pyrrolo[2,3-b]pyridin-5-yl)oxy)-4-(4-((6-(4-chlorophenyl)spiro[3.5]non-6-en-7-yl)methyl)piperazin-1-yl)benzamide], which IC50 (RPMI 8226 cells; Homo sapiens, RPMI 8226 cells, CTG) is on record?
Answer: 5.58 µM

Question: For Cc1c(S(C)(=O)=O)c(-c2cc(F)cc(N3CCN(c4ccc(NS(=O)(=O)c5ccc(N[C@H](CCN6CCC(C(=O)OCCCP(=O)(O)O)CC6)CSc6ccccc6)c(S(=O)(=O)C(F)(F)F)c5)cc4)CC3)c2)c(-c2ccc(Cl)cc2)n1C(C)C [compound D, (3R)-1-(3-(4-(4-(4-(3-(2-(4-chlorophenyl)-1-isopropyl-4-methylsulfonyl-5-methyl-1H-pyrrol-3-yl)-5-fluorophenyl)piperazin-1-yl)-phenylaminosulfonyl)-2-trifluoromethylsulfonyl-anilino)-4-phenylthio-butyl)-piperidine-4-carboxylic acid 3-phosphonopropyl ester], which platelet toxicity (platelet) is on record?
Answer: lower platelet toxicity

Question: And the “efficacy in CDX model” value (MM1.S [5])?
Answer: also effective

Question: And the “efficacy in CDX model” value (KMS34 [6])?
Answer: also effective
